# Data reported in PubChem BioAssay AID270 (DTP/NCI, 2004).
# “And” between values parts separate entries of the source, which are not always exact repeats. Equal entries are not always repeated. Inconclusive results are not listed. *1 amine or outer side, *2 acyl side, *3 side chain or, on linkers, in order; H or OH if unused. Where a SMILES comes first, the peptide text is derived from it. Bridges are numbered along the chain shown (N, C = ends). [ ]: non-standard residue; d: D form. The star is where a group is joined. X2 = CC(C)C(C)C(C(=O)[*:2])N(C)[*:1]; Picolinoyl(3-OH) = O=C(c1ncccc1O)*; NMePhg = CN[CH](C(=O)O)c1ccccc1; Hyp = O=C(O)[CH]1C[CH](O)CN1; Sar = CNCC(=O)O
# Tested on: BDF1 mice, s.c. Lewis lung carcinoma, T/C %
# Experiment: NCI In Vivo Anticancer Drug Screen. Data for tumor model Lewis Lung Carcinoma (subcutaneous) in B6D2F1 (BDF1) mice
# Procedure, shortened: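 Tumor-bearing mice were treated with test compound, and either survival or tumor size was recorded. Values are the treated-group measurement divided by that of the vehicle-treated control group.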
# [1] = endpoint: mean tumor weight, dose: 50.0 mg/kg/injection, schedule: Q01DX011 (ip), vehicle: other, higher = larger tumour
# [2] = endpoint: mean tumor weight, dose: 200.0 mg/kg/injection, schedule: Q01DX011 (ip), vehicle: other, higher = larger tumour
smiles,measurement,setting,value
O=C1N(Cl)C(=O)C(c2ccc(Cl)cc2)(c2ccc(Cl)cc2)N1Cl,T/C,"endpoint: mean tumor weight, dose: 17.0 mg/kg/injection, schedule: Q01DX011 (ip), vehicle: other, higher = larger tumour",84 % of control
same,T/C,"endpoint: mean tumor weight, dose: 33.0 mg/kg/injection, schedule: Q01DX011 (ip), vehicle: other, higher = larger tumour",68 % of control
same,T/C,[1],23 % of control
same,T/C,"endpoint: mean tumor weight, dose: 75.0 mg/kg/injection, schedule: Q01DX011 (ip), vehicle: other, higher = larger tumour",25 % of control
same,T/C,"endpoint: mean tumor weight, dose: 112.0 mg/kg/injection, schedule: Q01DX011 (ip), vehicle: other, higher = larger tumour",36 % of control
same,T/C,"endpoint: mean tumor weight, dose: 224.0 mg/kg/injection, schedule: Q01DX011 (ip), vehicle: other, higher = larger tumour",52 % of control
same,T/C,"endpoint: median survival time, dose: 12.5 mg/kg/injection, schedule: Q01DX009 (ip), vehicle: Klucel (hydroxypropylcellulose) (HPC), higher = longer survival",95 % of control
same,T/C,"endpoint: median survival time, dose: 25.0 mg/kg/injection, schedule: Q01DX009 (ip), vehicle: Klucel (hydroxypropylcellulose) (HPC), higher = longer survival",87 % of control
same,T/C,"endpoint: median survival time, dose: 50.0 mg/kg/injection, schedule: Q01DX009 (ip), vehicle: Klucel (hydroxypropylcellulose) (HPC), higher = longer survival",101 % of control
O=C(CP(=O)(O)O)NC(CC(=O)OCc1ccccc1)C(=O)OCc1ccccc1 (stereo not drawn),T/C,"endpoint: median survival time, dose: 50.0 mg/kg/injection, schedule: Q01DX004 (ip), vehicle: saline, higher = longer survival",114 % of control and 120 % of control
same,T/C,"endpoint: median survival time, dose: 100.0 mg/kg/injection, schedule: Q01DX004 (ip), vehicle: saline, higher = longer survival",120 % of control and 118 % of control
same,T/C,"endpoint: median survival time, dose: 200.0 mg/kg/injection, schedule: Q01DX004 (ip), vehicle: saline, higher = longer survival",109 % of control
same,T/C,"endpoint: median survival time, dose: 400.0 mg/kg/injection, schedule: Q01DX004 (ip), vehicle: saline, higher = longer survival",109 % of control
same,T/C,"endpoint: median survival time, dose: 800.0 mg/kg/injection, schedule: Q01DX004 (ip), vehicle: saline, higher = longer survival",116 % of control
CC1=C/C(O)CC(=O)Cc2nc(co2)C(=O)N2CCC=C2C(=O)OC(C(C)C)C(C)/C=C\C(=O)NC/C=C\1 (stereo not drawn),T/C,"endpoint: median survival time, dose: 0.5 micrograms/kg/injection, schedule: Q01DX009 (ip), vehicle: saline, higher = longer survival",103 % of control
same,T/C,"endpoint: median survival time, dose: 1.0 micrograms/kg/injection, schedule: Q01DX009 (ip), vehicle: saline, higher = longer survival",94 % of control
same,T/C,"endpoint: median survival time, dose: 2.0 micrograms/kg/injection, schedule: Q01DX009 (ip), vehicle: saline, higher = longer survival",98 % of control
same,T/C,"endpoint: median survival time, dose: 4.0 micrograms/kg/injection, schedule: Q01DX009 (ip), vehicle: saline, higher = longer survival",99 % of control
NC(=O)n1cccn1,T/C,"endpoint: mean tumor weight, dose: 25.0 mg/kg/injection, schedule: Q01DX011 (ip), vehicle: saline, higher = larger tumour",76 % of control
same,T/C,"endpoint: mean tumor weight, dose: 25.0 mg/kg/injection, schedule: Q01DX011 (ip), vehicle: water, higher = larger tumour",88 % of control
same,T/C,"endpoint: mean tumor weight, dose: 50.0 mg/kg/injection, schedule: Q01DX011 (ip), vehicle: saline, higher = larger tumour",61 % of control
same,T/C,"endpoint: mean tumor weight, dose: 50.0 mg/kg/injection, schedule: Q01DX011 (ip), vehicle: water, higher = larger tumour",61 % of control
same,T/C,"endpoint: mean tumor weight, dose: 100.0 mg/kg/injection, schedule: Q01DX011 (ip), vehicle: saline, higher = larger tumour",49 % of control
same,T/C,"endpoint: mean tumor weight, dose: 100.0 mg/kg/injection, schedule: Q01DX011 (ip), vehicle: water, higher = larger tumour",39 % of control
CC(C)CC1NC(=O)C(NC(=O)c2ncccc2O)C(C)OC(=O)C(c2ccccc2)N(C)C(=O)C(C)NC(=O)C(C(C)C(C)C)N(C)C(=O)CN(C)C(=O)C2CC(O)CN2C1=O (stereo not drawn) ({Picolinoyl(3-OH)}-TL[Hyp][Sar][X2]A[NMePhg]; ester 1-C; configuration not given here),T/C,"endpoint: mean tumor weight, dose: 5.3 mg/kg/injection, schedule: Q01DX011 (ip), vehicle: saline, higher = larger tumour",90 % of control
same,T/C,"endpoint: mean tumor weight, dose: 8.0 mg/kg/injection, schedule: Q01DX011 (ip), vehicle: saline, higher = larger tumour",86 % of control
same,T/C,"endpoint: mean tumor weight, dose: 12.0 mg/kg/injection, schedule: Q01DX011 (ip), vehicle: saline, higher = larger tumour",88 % of control
same,T/C,"endpoint: mean tumor weight, dose: 18.0 mg/kg/injection, schedule: Q01DX011 (ip), vehicle: saline, higher = larger tumour",122 % of control
O=P(Oc1ccccc1)(Oc1ccccc1)c1ccccc1,T/C,"endpoint: mean tumor weight, dose: 133.0 mg/kg/injection, schedule: Q01DX011 (ip), vehicle: other, higher = larger tumour",75 % of control
same,T/C,[2],91 % of control
CCN1C=C/C(=C\C=C/c2cc[n+](CC)c3ccccc23)c2ccccc21,T/C,"endpoint: median survival time, dose: 6.0 micrograms/kg/injection, schedule: Q01DX009 (ip), vehicle: saline, higher = longer survival",114 % of control
same,T/C,"endpoint: median survival time, dose: 6.2 micrograms/kg/injection, schedule: Q01DX009 (ip), vehicle: saline with Tween-80, higher = longer survival",104 % of control
same,T/C,"endpoint: median survival time, dose: 12.0 micrograms/kg/injection, schedule: Q01DX009 (ip), vehicle: saline, higher = longer survival",209 % of control
same,T/C,"endpoint: median survival time, dose: 12.5 micrograms/kg/injection, schedule: Q01DX009 (ip), vehicle: saline with Tween-80, higher = longer survival",98 % of control
same,T/C,"endpoint: median survival time, dose: 25.0 micrograms/kg/injection, schedule: Q01DX009 (ip), vehicle: saline with Tween-80, higher = longer survival",101 % of control
same,T/C,"endpoint: median survival time, dose: 25.0 micrograms/kg/injection, schedule: Q01DX009 (ip), vehicle: saline, higher = longer survival",208 % of control
same,T/C,"endpoint: median survival time, dose: 50.0 micrograms/kg/injection, schedule: Q01DX009 (ip), vehicle: saline with Tween-80, higher = longer survival",98 % of control
same,T/C,"endpoint: median survival time, dose: 50.0 micrograms/kg/injection, schedule: Q01DX009 (ip), vehicle: saline, higher = longer survival",209 % of control
same,T/C,"endpoint: median survival time, dose: 100.0 micrograms/kg/injection, schedule: Q01DX009 (ip), vehicle: saline with Tween-80, higher = longer survival",104 % of control
CC1CN1c1nc(N2CC2C)nc(N2CC2C)n1 (stereo not drawn),T/C,"endpoint: median survival time, dose: 1.0 mg/kg/injection, schedule: Q01DX009 (ip), vehicle: saline, higher = longer survival",106 % of control
same,T/C,"endpoint: median survival time, dose: 2.0 mg/kg/injection, schedule: Q01DX009 (ip), vehicle: saline, higher = longer survival",86 % of control
same,T/C,"endpoint: median survival time, dose: 4.0 mg/kg/injection, schedule: Q01DX009 (ip), vehicle: saline, higher = longer survival",105 % of control
same,T/C,"endpoint: median survival time, dose: 8.0 mg/kg/injection, schedule: Q01DX009 (ip), vehicle: saline, higher = longer survival",105 % of control
S=c1c2[nH]cnc2ncn1CCSC1=NC=NC2=NC=NC21 (stereo not drawn),T/C,[1],96 % of control
same,T/C,"endpoint: mean tumor weight, dose: 100.0 mg/kg/injection, schedule: Q01DX011 (ip), vehicle: other, higher = larger tumour",53 % of control
same,T/C,[2],61 % of control
same,T/C,"endpoint: mean tumor weight, dose: 400.0 mg/kg/injection, schedule: Q01DX011 (ip), vehicle: other, higher = larger tumour",37 % of control
Nc1c(Cl)c(Cl)nc(C(=O)O)c1Cl,T/C,"endpoint: median survival time, dose: 25.0 mg/kg/injection, schedule: Q02DX009 (ip), vehicle: Klucel (hydroxypropylcellulose) (HPC), higher = longer survival",109 % of control
same,T/C,"endpoint: median survival time, dose: 25.0 mg/kg/injection, schedule: Q02DX009 (ip), vehicle: distilled water + Tween-80, higher = longer survival",121 % of control
same,T/C,"endpoint: median survival time, dose: 50.0 mg/kg/injection, schedule: Q02DX009 (ip), vehicle: Klucel (hydroxypropylcellulose) (HPC), higher = longer survival",98 % of control
same,T/C,"endpoint: median survival time, dose: 50.0 mg/kg/injection, schedule: Q02DX009 (ip), vehicle: distilled water + Tween-80, higher = longer survival",104 % of control
same,T/C,"endpoint: median survival time, dose: 100.0 mg/kg/injection, schedule: Q02DX009 (ip), vehicle: Klucel (hydroxypropylcellulose) (HPC), higher = longer survival",91 % of control
same,T/C,"endpoint: median survival time, dose: 100.0 mg/kg/injection, schedule: Q02DX009 (ip), vehicle: distilled water + Tween-80, higher = longer survival",88 % of control
same,T/C,"endpoint: median survival time, dose: 200.0 mg/kg/injection, schedule: Q02DX009 (ip), vehicle: Klucel (hydroxypropylcellulose) (HPC), higher = longer survival",92 % of control
same,T/C,"endpoint: median survival time, dose: 200.0 mg/kg/injection, schedule: Q02DX009 (ip), vehicle: distilled water + Tween-80, higher = longer survival",100 % of control
OC(CCl)CN1CC[N+]2(CC1)CC[N+]1(CCN(CC(O)CCl)CC1)CC2 (stereo not drawn),T/C,"endpoint: median survival time, dose: 40.0 mg/kg/injection, schedule: Q01DX009 (ip), vehicle: saline, higher = longer survival",107 % of control and 112 % of control
same,T/C,"endpoint: median survival time, dose: 80.0 mg/kg/injection, schedule: Q01DX009 (ip), vehicle: saline, higher = longer survival",114 % of control and 121 % of control
same,T/C,"endpoint: median survival time, dose: 160.0 mg/kg/injection, schedule: Q01DX009 (ip), vehicle: saline, higher = longer survival",120 % of control
same,T/C,"endpoint: median survival time, dose: 320.0 mg/kg/injection, schedule: Q01DX009 (ip), vehicle: saline, higher = longer survival",150 % of control and 157 % of control
CC1=C(/C=C/C(C)=C/C=C/C(C)=C/C(=O)O)C(C)(C)CCC1,T/C,"endpoint: median survival time, dose: 6.25 mg/kg/injection, schedule: Q01DX005 (ip), vehicle: saline with Tween-80, higher = longer survival",109 % of control
same,T/C,"endpoint: median survival time, dose: 8.0 mg/kg/injection, schedule: Q01DX009 (ip), vehicle: saline with Tween-80, higher = longer survival",102 % of control
same,T/C,"endpoint: median survival time, dose: 16.0 mg/kg/injection, schedule: Q01DX009 (ip), vehicle: saline with Tween-80, higher = longer survival",93 % of control
same,T/C,"endpoint: median survival time, dose: 32.0 mg/kg/injection, schedule: Q01DX009 (ip), vehicle: saline with Tween-80, higher = longer survival",93 % of control
